Experimental data from US6737383B1, “Herbicidal oxadiazolidines” (priority 1999, dated 2004).

How the values were obtained:
bedstraw = assay: Test B pre/postemergence bedstraw; type: in vivo, Galium aparine
How it was run: (§1)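 Herbicidal effect was estimated by eye on a ten-point control scale after plants spent twelve to sixteen days in a greenhouse following soil or foliar treatment. Foliar sprays targeted plants at one to four leaves; all doses were formulated in a non-phytotoxic solvent with surfactant.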

blackgrass = assay: Test B pre/postemergence blackgrass; type: in vivo, Alopecurus myosuroides
How it was run: as §1

surinam grass = assay: Test B pre/postemergence surinam grass; type: in vivo, Brachiaria decumbens
How it was run: as §1

corn = assay: Test B pre/postemergence corn; type: in vivo, Zea mays
How it was run: as §1

crabgrass = assay: Test B pre/postemergence crabgrass; type: in vivo, Digitaria sanguinalis
How it was run: as §1

giant foxtail = assay: Test B pre/postemergence giant foxtail; type: in vivo, Setaria faberii
How it was run: as §1

morningglory = assay: Test B pre/postemergence morningglory; type: in vivo, Ipomoea hederacea
How it was run: as §1

rape = assay: Test B pre/postemergence rape; type: in vivo, Brassica napus
How it was run: as §1

soybean = assay: Test B pre/postemergence soybean; type: in vivo, Glycine max
How it was run: as §1

velvetleaf = assay: Test B pre/postemergence velvetleaf; type: in vivo, Abutilon theophrasti
How it was run: as §1

wheat = assay: Test B pre/postemergence wheat; type: in vivo, Triticum aestivum
How it was run: as §1

wild oat = assay: Test B pre/postemergence wild oat; type: in vivo, Avena fatua
How it was run: as §1

purple nutsedge = assay: Test B pre/postemergence purple nutsedge; type: in vivo, Cyperus rotundus
How it was run: as §1

rice = assay: Test B flood test rice; type: in vivo, Oryza sativa
How it was run: (§2)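 Flood test on plants grown to the 2-leaf stage; treated plants kept in greenhouse twelve to sixteen days, then visually rated against controls on a 0 (no effect) to 10 (complete control) scale.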

smallflower flatsedge = assay: Test B flood test smallflower flatsedge; type: in vivo, Cyperus difformis
How it was run: as §2

duck salad = assay: Test B flood test duck salad; type: in vivo, Heteranthera limosa
How it was run: as §2

[1] = Postemergence, Rate 125 g/ha, scale of 0 to 10 where 0 is no effect and 10 is complete control
[2] = Preemergence, Rate 62 g/ha, scale 0 to 10 (0 no effect, 10 complete control)
[3] = Preemergence, Rate 125 g/ha, 0 is no effect, 10 is complete control
[4] = Preemergence, Rate 250 g/ha, scale 0 to 10, 0 is no effect, 10 is complete control
[5] = Preemergence, Rate 500 g/ha, scale 0 to 10 (0 no effect, 10 complete control)
[6] = Rate 62 g/ha, Postemergence, scale of 0 to 10 where 0 is no effect and 10 is complete control
[7] = Rate 250 g/ha, Postemergence, scale 0 to 10, 0 is no effect, 10 is complete control
[8] = Rate 500 g/ha, Postemergence, scale 0 to 10
[9] = Postemergence (flood test species), Rate 125 g/ha, scale of 0 to 10 where 0 is no effect and 10 is complete control
[10] = Rate 62 g/ha, Postemergence section, flood test species, scale of 0 to 10 where 0 is no effect and 10 is complete control
[11] = Rate 250 g/ha, Postemergence (flood test), scale 0 to 10, 0 is no effect, 10 is complete control
[12] = Rate 500 g/ha, listed under Postemergence (flood test species), scale 0 to 10

SMILES: CC(C)N(C(=O)n1oc(=O)n(Cc2ccccc2Cl)c1=O)C1=CCCCC1 [Compound 145]
- Bedstraw plant response rating (bedstraw; [1]): 2
- Bedstraw plant response rating (bedstraw; [2]): 0
- Bedstraw plant response rating (0 to 10 scale) (bedstraw; [3]): 0
- Bedstraw plant response rating (bedstraw; [4]): 0
- Bedstraw plant response rating (bedstraw; [5]): 4
- Bedstraw plant response rating (bedstraw; [6]): 0
- Plant response rating, Bedstraw (bedstraw; [7]): 3
- Bedstraw plant response rating (bedstraw; Rate 500 g/ha, Postemergence, scale 0 to 10, 0 no effect, 10 complete control): 5
- Blackgrass plant response rating (blackgrass; [1]): 1
- Blackgrass plant response rating (blackgrass; [2]): 0
- Blackgrass plant response rating (0 to 10 scale) (blackgrass; [3]): 1
- Blackgrass plant response rating (blackgrass; [4]): 4
- Blackgrass plant response rating (blackgrass; [5]): 7
- Blackgrass plant response rating (blackgrass; [6]): 0
- Plant response rating, Blackgrass (blackgrass; [7]): 5
- Blackgrass plant response rating (blackgrass; [8]): 6
- B. signalgrass plant response rating (surinam grass; [1]): 0
- B. signalgrass plant response rating (surinam grass; [2]): 0
- B. signalgrass plant response rating (0 to 10 scale) (surinam grass; [3]): 0
- B. signalgrass plant response rating (surinam grass; [4]): 3
- B. signalgrass plant response rating (surinam grass; [5]): 5
- B. signalgrass plant response rating (surinam grass; [6]): 0
- Plant response rating, B. signalgrass (surinam grass; [7]): 0
- B. signalgrass plant response rating (surinam grass; Rate 500 g/ha, Postemergence, scale of 0 to 10 where 0 is no effect and 10 is complete control): 2
- Corn plant response rating (corn; [1]): 0
- Corn plant response rating (corn; [2]): 0
- Corn plant response rating (0 to 10 scale) (corn; [3]): 0
- Corn plant response rating (corn; [4]): 0
- Corn plant response rating (corn; [5]): 0
- Corn plant response rating (corn; [6]): 0
- Plant response rating, Corn (corn; [7]): 0
- Corn plant response rating (corn; [8]): 0
- Crabgrass plant response rating (crabgrass; [1]): 3
- Crabgrass plant response rating (crabgrass; [2]): 0
- Crabgrass plant response rating (0 to 10 scale) (crabgrass; [3]): 4
- Crabgrass plant response rating (crabgrass; [4]): 4
- Crabgrass plant response rating (crabgrass; [5]): 8
- Crabgrass plant response rating (crabgrass; [6]): 2
- Plant response rating, Crabgrass (crabgrass; [7]): 8
- Crabgrass plant response rating (crabgrass; [8]): 8
- Giant foxtail plant response rating (giant foxtail; [1]): 0
- Giant foxtail plant response rating (giant foxtail; [2]): 0
- Giant foxtail plant response rating (0 to 10 scale) (giant foxtail; [3]): 3
- Giant foxtail plant response rating (giant foxtail; [4]): 5
- Giant foxtail plant response rating (giant foxtail; [5]): 8
- Giant foxtail plant response rating (giant foxtail; [6]): 0
- Plant response rating, Giant foxtail (giant foxtail; [7]): 2
- Giant foxtail plant response rating (giant foxtail; [8]): 4
- Morningglory plant response rating (morningglory; [1]): 8
- Morningglory plant response rating (morningglory; [2]): 0
- Morningglory plant response rating (0 to 10 scale) (morningglory; [3]): 0
- Morningglory plant response rating (morningglory; [4]): 0
- Morningglory plant response rating (morningglory; [5]): 1
- Morningglory plant response rating (morningglory; [6]): 6
- Plant response rating, Morningglory (morningglory; [7]): 10
- Morningglory plant response rating (morningglory; [8]): 10
- Rape plant response rating (rape; [1]): 2
- Rape plant response rating (rape; [2]): 0
- Rape plant response rating (0 to 10 scale) (rape; [3]): 0
- Rape plant response rating (rape; [4]): 0
- Rape plant response rating (rape; [5]): 0
- Rape plant response rating (rape; [6]): 0
- Plant response rating, Rape (rape; [7]): 3
- Rape plant response rating (rape; [8]): 3
- Soybean plant response rating (soybean; [1]): 3
- Soybean plant response rating (soybean; [2]): 0
- Soybean plant response rating (0 to 10 scale) (soybean; [3]): 0
- Soybean plant response rating (soybean; [4]): 0
- Soybean plant response rating (soybean; [5]): 0
- Soybean plant response rating (soybean; [6]): 3
- Plant response rating, Soybean (soybean; [7]): 4
- Soybean plant response rating (soybean; [8]): 5
- Velvetleaf plant response rating (velvetleaf; [1]): 0
- Velvetleaf plant response rating (velvetleaf; [2]): 0
- Velvetleaf plant response rating (0 to 10 scale) (velvetleaf; [3]): 0
- Velvetleaf plant response rating (velvetleaf; [4]): 0
- Velvetleaf plant response rating (velvetleaf; [5]): 5
- Velvetleaf plant response rating (velvetleaf; [6]): 0
- Plant response rating, Velvetleaf (velvetleaf; [7]): 0
- Velvetleaf plant response rating (velvetleaf; [8]): 2
- Wheat plant response rating (wheat; [1]): 0
- Wheat plant response rating (wheat; [2]): 0
- Wheat plant response rating (0 to 10 scale) (wheat; [3]): 0
- Wheat plant response rating (wheat; [4]): 0
- Wheat plant response rating (wheat; [5]): 0
- Wheat plant response rating (wheat; [6]): 0
- Plant response rating, Wheat (wheat; [7]): 0
- Wheat plant response rating (wheat; [8]): 0
- Wild oats plant response rating (wild oat; [1]): 0
- Wild oats plant response rating (wild oat; [2]): 0
- Wild oats plant response rating (0 to 10 scale) (wild oat; [3]): 0
- Wild oats plant response rating (wild oat; [4]): 0
- Wild oats plant response rating (wild oat; [5]): 3
- Wild oats plant response rating (wild oat; [6]): 0
- Plant response rating, Wild oats (wild oat; [7]): 0
- Wild oats plant response rating (wild oat; [8]): 2
- Nutsedge plant response rating (purple nutsedge; [1]): 0
- Nutsedge plant response rating (purple nutsedge; [2]): 0
- Nutsedge plant response rating (0 to 10 scale) (purple nutsedge; [3]): 0
- Nutsedge plant response rating (purple nutsedge; [4]): 0
- Nutsedge plant response rating (purple nutsedge; [5]): 0
- Nutsedge plant response rating (purple nutsedge; [6]): 0
- Plant response rating, Nutsedge (purple nutsedge; [7]): 0
- Nutsedge plant response rating (purple nutsedge; [8]): 0
- Rice plant response rating (rice; [9]): 0
- Rice plant response rating (rice; [10]): 0
- Plant response rating, Rice (rice; [11]): 0
- Rice plant response rating (rice; [12]): 0
- S. Flatsedge plant response rating (smallflower flatsedge; [9]): 0
- S. Flatsedge plant response rating (smallflower flatsedge; [10]): 0
- Plant response rating, S. Flatsedge (smallflower flatsedge; [11]): 5
- S. Flatsedge plant response rating (smallflower flatsedge; [12]): 8
- Ducksalad plant response rating (duck salad; [9]): 0
- Ducksalad plant response rating (duck salad; [10]): 0
- Plant response rating, Ducksalad (duck salad; [11]): 0
- Ducksalad plant response rating (duck salad; [12]): 2
